According to patent US10138292B2, “Cell culture medium” (BIOLAMINA AB, priority 2010, dated 2018):

Experiments:
Oct4 and Nanog mRNA = assay: Real-time quantitative RT-PCR of pluripotency markers (Example 1); assay type: cell-based, human; settings: after several passages
Protocol: Total RNA was isolated and cDNA was synthesized as described in Rodin et al., Nature Biotechnol., vol. 28, pp. 611-615 (2010). Real-time quantitative RT-PCR Taqman assays were performed using the Applied Biosystems 7300 Real-Time PCR System. All reactions were done in quadruplicate with predeveloped gene expression assay mix (Applied Biosystems) containing primers and a probe for the mRNA of interest. Additional reactions for each experiment included predeveloped gene expression assay mix for GAPDH, used to normalize the RNA input. All data were analyzed with 7300 System SDS Software version 1.4.

hES cells [1] = assay: Cell adhesion assay, 1 hour (Example 2); assay type: cell-based, human; settings: not shown
Protocol: Tissue cell culture plates were coated overnight at 4° C. with sterile solutions of the ECM proteins, such as human recombinant LN-521, all at a concentration of 30 μg/ml (5 μg/cm^2). Control plates were coated with Matrigel according to the STEMCELL Technologies' instructions. Prior to use, dishes were pre-warmed in an incubator for one hour after which prewarmed O3 medium was added without additional washing of the dish. After applying a fresh LN-521 solution to a new dish, the remaining LN-521 solution could be used at least once more. All the adhesion, survival, and inhibition of survival experiments were carried out using fresh coating materials.
Briefly, 96-well plates were coated by extracellular matrix proteins as described above and blocked by O3 medium containing bovine serum albumin. The ES cells were plated at cell density of 50,000 cells/cm^2 onto extracellular matrix-coated plates and left to adhere for 1 hour in a cell incubator. After that the plates were washed 3 times with the medium to remove the non-adherent cells, and then the adherent cells were fixed for 20 minutes by 5% glutaraldehyde, stained by 0.1% Crystal Violet. (Kebo Lab, Spanga, Sweden, http://www.kebolab.se). After one hour and 3 washes with water, Crystal Violet was extracted with 10% acetic acid and quantified by measuring optical density at 570 nm. All the experiments were performed in quadruplicate.

hES cell lines = assay: Karyotyping; assay type: cell-based, human; settings: HS181 12 passages and H1 10 passages in O3 medium; H1 7 passages in TeSR2
Protocol: Karyotyping of the cell lines was carried out using standard Q-banding techniques. Samples of cells were treated with colcemid KaryoMAX (0.1 μg/ml; Gibco Invitrogen Corporation) for up to 4 hours, followed by dissociation with Trypsin/EDTA solution (Gibco Invitrogen Corporation). The cells were pelleted via centrifugation and re-suspended in pre-warmed 0.0375 M KCl hypotonic solution and incubated for 10 minutes. Following centrifugation, the cells were resuspended in fixative (3:1 methanol:acetic acid). Metaphase spreads were prepared on glass microscope slides and G-banded by brief exposure to trypsin and stained with 4:1 Gurr's/Leishmann's stain (Sigma-Aldrich Co.). A minimum of 10 metaphase spreads were analyzed and additional 20 were counted.

human ES cells = assay: Cell adhesion / single cell survival 1 day after plating (Example 1); assay type: cell-based; settings: for adhesion at 1 day compared with dishes including the ROCK inhibitor: coating without additives
Protocol: Ninety-six-well tissue cell culture plates were coated overnight at 4° C. with sterile solutions of the ECM proteins mouse LN-111 (Invitrogen), human recombinant LN-511, and human recombinant LN-521, all at a concentration of 30 μg/ml (5 μg/cm^2). For control cells, BD Matrigel™ hESC qualified (BD Biosciences) was used according to the manufacturer's instructions.
The assay was performed as described (Extracellular Matrix Protocols, 2000). Briefly, 96-well plates were coated by extracellular matrix proteins as described above and blocked by O3 medium containing bovine serum albumin. The ES cells were plated at a cell density of 600 cell/mm^2 upon extracellular matrix-coated plates and were left to adhere for either 1 hour or 1 day at the cell incubator. Non-adherent cells were washed away, and adherent cells were fixed for 20 min by 5% glutaraldehyde, stained by 0.1% Crystal Violet.

hES cells [2] = assay: Clonal survival of individualized hES cells (Example 4); assay type: cell-based, human; settings: mTeSR1 medium, 250 cells per cm^2, 5 days, alkaline phosphatase staining
Protocol: hES cells were plated in mTeSR1 medium on different coatings at a density of 250 cells per cm^2 and monitored after 5 days in culture using an alkaline phosphatase staining kit.
Next, combinations of laminin-521 and E-Cadherin were tested to determine whether the combinations could sustain clonal survival of the cells. Fixed amounts of laminin-521 were used for the cell culture dish coating in combination with titrated E-Cadherin.
Additional tests were performed to test the effects of various modifications to the mTeSR1 medium. A mixture of E-Cadherin to laminin-521 in a ratio of about 1:10 w/w was used to coat the plates. […] Time-lapse photography of the cells confirmed that laminin-521/E-Cadherin coatings facilitated cell survival through proliferation of the single cells, not through the aggregation of different cells.

hES cells [3] = assay: In vivo imaging and migration assay; assay type: cell-based, human
Protocol: 24-well plates were coated by extracellular matrix proteins and blocked by O3 medium containing bovine serum albumin. The ES cells were plated at cell density of 30,000-40,000 cells/cm^2 onto extracellular matrix-coated plates and left to adhere for half an hour in a cell incubator. After that, the plate was transferred into high content imaging system Operetta (PerkinElmer) equipped with environmental control unit, which allowed to keep 37° C., 5% CO2. For two movies that were made, the brightfield images were taken once in 15 minutes during 24 hours after plating using Harmony software (PerkinElmer), exported, and analyzed using ImageJ software (NIH, the US). For migration assay the images were taken every seven minutes during 18 hours after plating. Images acquired between the fifth and seventh hours after plating were analyzed using MTrackJ plug-in (University Medical Center, Rotterdam, The Netherlands). 100 attached cells on each coating were traced and mean distances from the current to the previous point of the track were calculated. Error bars show standard error of the mean s.e.m. (n=100).

[4] = tested on: human embryonic stem cells; assay: Survival of dissociated human embryonic stem cells one day after plating on precoated dishes; assay type: cell-based; settings: single cell suspension, O3 medium, 30 Kcells/cm^2
Source text: In other aspects, the present disclosure provides a new material, isolated laminin-521, which permits human embryonic stem cell survival after dissociation into single cell suspension. The stem cells were dissociated into single cell suspension by Trypsin-EDTA treatment, pelleted by centrifugation, resuspended into O3 medium, filtered through a 40 μm sieve, and plated at a density of 30 Kcells/cm^2 on cell culture dishes precoated by either isolated laminin-521, laminin-511, or Matrigel. After one day in culture, the cells plated on Matrigel died, as is known in the art.

LN-521: protein formed by joining α5, β2 and γ1 laminin chains; human recombinant, produced in HEK293 cells
number of mRNA transcripts of Oct4 and Nanog compared with Matrigel (Oct4 and Nanog mRNA): higher numbers of transcripts
spreading of the cells after one hour compared with Matrigel or LN-111 (hES cells [1]): clearly better
karyotype (hES cell lines): normal
adhesion at 1 day compared with dishes including the ROCK inhibitor (human ES cells): similar
adhesion at 1 day compared with dishes including the ROCK inhibitor (human ES cells; listed as LN-532): no ROCK inhibitor is necessary
cells remaining attached / surviving 24 hours after plating (human ES cells; completely dissociated H5181 cells, O3 medium without any additives, no ROCK inhibitor): survived
adhesion at 1 day relative to Matrigel without additives (human ES cells; without additives): 20 times
clonal survival of individualized hES cells (hES cells [2]): Neither laminin-521 nor E-Cadherin alone permitted efficient clonal survival
motility of hES cells compared with other coatings (hES cells [3]; between the fifth and seventh hours after plating): higher
migration of cells compared with Matrigel (imaging) (hES cells [3]; in vivo imaging): much faster
survival after one day in culture [4]: survived
